Measurements taken from US20090062273A1, “3-H-pyrazolopyridines and salts thereof, pharmaceutical compositions comprising same, methods of preparing same and uses of same” (priority 2006, published 2009).

Key:
[1] = molecular target: T1, human insuline receptor (Ins-R) (Homo sapiens, UniProt P06213); experiment: InsR HTRF assay (selectivity vs. Tie2 assay 2); assay type: biochemical; conditions: IC50 assay 4/IC50 assay 2
T1 construct: GST-tagged recombinant kinase domain of the human insuline receptor; GST; purchased ProQinase, Freiburg, Germany; host or cells: SF-9 cells
T1 sequence (P06213 1023-1298 limits assumed): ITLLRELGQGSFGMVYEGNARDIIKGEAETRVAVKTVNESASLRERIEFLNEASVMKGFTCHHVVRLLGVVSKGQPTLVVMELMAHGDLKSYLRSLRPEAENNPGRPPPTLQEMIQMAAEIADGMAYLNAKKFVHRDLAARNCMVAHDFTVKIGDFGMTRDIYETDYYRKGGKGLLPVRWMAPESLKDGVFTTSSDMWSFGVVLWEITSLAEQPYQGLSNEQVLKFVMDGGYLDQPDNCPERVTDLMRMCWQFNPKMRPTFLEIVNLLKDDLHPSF
Experimental: Inhibitory activity of compounds against the kinase activity of the insulin receptor was quantified employing the Ins-R HTRF assay as described in the following paragraphs.
GST-tagged recombinant kinase domain of the human insuline receptor (Ins-R, purchase from ProQinase, Freiburg, Germany) expressed in SF-9 cells was used as kinase. As substrate for the kinase reaction biotinylated poly-(Glu,Tyr) (Cis biointernational, France) was used.
Ins-R was incubated for 20 min at 22° C. in the presence of different concentrations of test compounds in 5 μl assay buffer [50 mM Hepes/NaOH pH 7, 15 mM MnCl2, 1 mM dithiothreitol, 0.1 μM sodium ortho-vanadate, 0.015% (v/v) PEG20000, 10 μM adenosine-tri-phosphate (ATP), 0.3 μg/ml substrate, 1% (v/v) dimethylsulfoxide]. The concentration of Ins-R was adjusted depending of the activity of the enzyme lot and was chosen appropriate to have the assay in the linear range, typical concentrations were in the range of 10 pg/μL. The reaction was stopped by the addition of 5 μl of a solution of HTRF detection reagents (0.1 μM streptavidine-XLent and 1 nM PT66-Eu-Chelate, an europium-chelate labelled anti-phospho-tyrosine antibody from Perkin Elmer) in an aqueous EDTA-solution (80 mM EDTA, 0.2% (w/v) bovine serum albumin in 50 mM HEPES/NaOH pH 7.0).
The resulting mixture was incubated 1 h at 22° C. to allow the binding of the biotinylated phosphorylated peptide to the streptavidine-XLent and the PT66-Eu-Chelate. Subsequently the amount of phosphorylated substrate was evaluated by measurement of the resonance energy transfer from the PT66-Eu-Chelate to the streptavidine-XLent. Therefore, the fluorescence emissions at 620 nm and 665 nm after excitation at 350 nm was measured in a HTRF reader, e.g. a Rubystar (BMG Labtechnologies, Offenburg, Germany) or a ViewLux (Perkin-Elmer). The ratio of the emissions at 665 nm and at […] was taken as the measure for the amount of phosphorylated substrate. The data were normalised (enzyme reaction without inhibitor=0% inhibition, all other assay components but no enzyme=100% inhibition) and IC50 values were calculated by a 4 parameter fit using an inhouse software.

Tie2 = Tie2 (Homo sapiens, UniProt Q02763); experiment: Tie2 ELISA assay (cellular Tie2 autophosphorylation); assay type: cell-based; parameters: expressed in transfected cells; host or cells: CHO (CHO Tie2/DHFR); conditions: CHO cells stably transfected with Tie2, stimulated by angiopoietin-2; Tie2 autophosphorylation by sandwich-ELISA; read-out: Tie 2 activity (assay 1)
Sequence of Tie2 (Q02763 23-1124, species assumed): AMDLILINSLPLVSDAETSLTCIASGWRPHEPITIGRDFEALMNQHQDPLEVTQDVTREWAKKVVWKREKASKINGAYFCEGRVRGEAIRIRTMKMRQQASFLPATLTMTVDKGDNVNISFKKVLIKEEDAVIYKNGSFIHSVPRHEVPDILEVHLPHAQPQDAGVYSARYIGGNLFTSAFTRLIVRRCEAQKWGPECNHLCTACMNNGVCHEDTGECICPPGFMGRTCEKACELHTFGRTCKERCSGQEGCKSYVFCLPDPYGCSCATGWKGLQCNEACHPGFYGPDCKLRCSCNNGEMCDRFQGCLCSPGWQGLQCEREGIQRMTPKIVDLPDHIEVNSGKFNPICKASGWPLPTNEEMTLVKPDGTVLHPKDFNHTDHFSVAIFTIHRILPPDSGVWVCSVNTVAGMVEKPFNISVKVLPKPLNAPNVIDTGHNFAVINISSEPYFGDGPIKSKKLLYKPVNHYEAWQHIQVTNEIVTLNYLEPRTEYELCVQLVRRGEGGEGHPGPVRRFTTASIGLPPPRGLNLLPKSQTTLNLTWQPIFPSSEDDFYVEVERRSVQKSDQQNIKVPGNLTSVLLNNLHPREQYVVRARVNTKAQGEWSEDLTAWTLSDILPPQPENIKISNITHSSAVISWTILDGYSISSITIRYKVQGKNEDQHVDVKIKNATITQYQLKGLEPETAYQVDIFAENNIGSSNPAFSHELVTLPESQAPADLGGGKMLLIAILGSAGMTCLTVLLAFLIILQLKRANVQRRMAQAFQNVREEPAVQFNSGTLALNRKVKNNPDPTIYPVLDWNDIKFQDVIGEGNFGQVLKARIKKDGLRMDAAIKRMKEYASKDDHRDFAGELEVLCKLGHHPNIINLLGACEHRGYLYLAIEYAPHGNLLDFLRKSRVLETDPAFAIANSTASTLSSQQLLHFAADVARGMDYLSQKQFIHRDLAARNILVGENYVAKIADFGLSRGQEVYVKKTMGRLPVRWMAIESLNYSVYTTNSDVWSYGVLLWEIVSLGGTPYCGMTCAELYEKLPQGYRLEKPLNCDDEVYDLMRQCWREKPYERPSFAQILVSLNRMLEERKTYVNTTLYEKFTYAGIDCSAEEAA
Experimental: Cellular activity of compounds of the present invention as inhibitors of Tie2 kinase activity was measured employing a Tie2 ELISA assay as described in the following paragraphs. Herein CHO cell-cultures, which are stably transfected by known techniques with Tie2 using DHFR deficiency as selection marker, are stimulated by angiopoietin-2. The specific autophosphorylation of Tie2 receptors is quantified with a sandwich-ELISA using anti-Tie2 antibodies for catch and anti-phosphotyrosine antibodies coupled to HRP for detection.
• 96 well tissue culture plate, sterile, Greiner • 96 well FluoroNunc plate MaxiSorp Surface C, Nunc • 96 well plate polypropylene for compound dilution in DMSO • CHO Tie2/DHFR (transfected cells) • PBS−; PBS++, DMSO • MEM alpha Medium with Glutamax-I without Ribonucleosides and Deoxyribonucleosides (Gibco #32561-029) • with 10% FCS after dialysis! and 1% PenStrep • Lysis buffer: 1 Tablet “Complete” protease inhibitor • 1 cap Vanadate (1 mL>40 mg/mL; working solution 2 mM) • ad 50 mL with Duschl-Puffer • pH 7.6 • Anti-Tie2-antibody 1:425 in Coating Buffer pH 9.6 • Stock solution: 1.275 mg/mL>working.: 3 μg/mL • PBST: 2 bottles PBS (10×)+10 ml Tween, fill up with VE-water • RotiBlock 1:10 in VE-water • Anti-Phosphotyrosine HRP-Conjugated 1:10000 in 3% TopBlock • 3% TopBlock in PBST • BM Chemiluminescence ELISA Substrate (POD) • solution B 1:100 solution A • SF9 cell culture medium • Ang2-Fc in SF9 cell culture medium
• Dispense 5×10^4 cells/well/98 μL in 96 well tissue culture plate • Incubate at 37° C./5% CO2 • After 24 h add compounds according to desired concentrations • Add also to control and stimulated values without compounds 2 μL DMSO • And mix for a few min at room temperature • Add 100 μL Ang2-Fc to all wells except control, which receives insect medium • Incubate 20 min at 37° C. • Wash 3× with PBS++ • Add 100 μl Lysis buffer/well and shake a couple of min at room temperature • Store lysates at […] before utilizing for the ELISA
• Coat 96 well FluoroNunc Plate MaxiSorp Surface C with anti-Tie2 mAb 1:425 in Coating buffer pH 9.6; 100 μL/well overnight at 4° C. • Wash 2× with PBST • Block plates with 250 μL/well RotiBlock 1:10 in VE-water • Incubate for 2 h at room temperature or overnight at 4° C. shaking • Wash 2× in PBST • Add thawed lysates to wells and incubate overnight shaking at 4° C. • Wash 2× with PBST • Add 100 μL/well anti-Phosphotyrosine HRP-Conjugated 1:10000 in 3% TopBlock (3% TopBlock in PBST) and incubate overnight under shaking • Wash 6× with PBST • Add 100 μL/well BM Chemiluminescence ELISA Substrate (POD) solutions 1 und 2 (1:100) • Determine luminescence with the LumiCount. Assay 2: Tie-2-Kinase HTRF-Assay without Kinase Preactivation

Compound	Selectivity vs. InsR [1] [fold]	IC50 (Tie2) [nM]
CCc1cccc(NC(=O)Nc2ccc(-c3cncc4c3cnn4C)cc2)c1 [Example 1.5, 1-(3-Ethyl-phenyl)-3-[4-(1-methyl-1H-pyrazolo[3,4-c]pyridin-4-yl)-phenyl]-urea]	>50	< 501
Cn1ncc2c(-c3ccc(NC(=O)Nc4cccc(C(F)(F)F)c4)cc3)cncc21 [Example 1.4, 1-[4-(1-Methyl-1H-pyrazolo[3,4-c]pyridin-4-yl)-phenyl]-3-(3-trifluoromethyl-phenyl)-urea]	>50	< 501
Cn1ncc2c(-c3ccc(NC(=O)Nc4cccc(C(F)(F)F)c4)c(F)c3)cncc21 [Example 3.1, 1-[2-Fluoro-4-(1-methyl-1H-pyrazolo[3,4-c]pyridin-4-yl)-phenyl]-3-(3-trifluoromethyl-phenyl)-urea]	>50	< 501
CN1CCN(Cc2ccc(NC(=O)Nc3ccc(-c4cncc5c4cnn5C)cc3F)cc2C(F)(F)F)CC1 [Example 13.6, 1-[2-Fluoro-4-(1-methyl-1H-pyrazolo[3,4-c]pyridin-4-yl)-phenyl]-3-[4-(4-methyl-piperazin-1-ylmethyl)-3-trifluoromethyl-phenyl]-urea]	>50	< 501
Cn1ncc2c(-c3ccc(NC(=O)Nc4cc(C(F)(F)F)ccc4F)cc3)cncc21 [Example 1.2, 1-(2-Fluoro-5-trifluoromethyl-phenyl)-3-[4-(1-methyl-1H-pyrazolo[3,4-c]pyridin-4-yl)-phenyl]-urea]	>50	< 501
Cn1ncc2c(-c3ccc(NC(=O)Nc4cc(C(F)(F)F)ccn4)cc3)cncc21 [Example 1.9, 1-[4-(1-Methyl-1H-pyrazolo[3,4-c]pyridin-4-yl)-phenyl]-3-(4-trifluoromethyl-pyridin-2-yl)-urea]	>50	< 501
Cn1ncc2c(-c3ccc(NC(=O)Nc4cc(C(C)(C)C)nn4-c4cncc(F)c4)cc3)cncc21 [Example 15.12, 1-[5-tert-Butyl-2-(5-fluoro-pyridin-3-yl)-2H-pyrazol-3-yl]-3-[4-(1-methyl-1H-pyrazolo[3,4-c]pyridin-4-yl)-phenyl]-urea]	>50	< 501
O=C(Nc1ccc(-c2cncc3c2cnn3CCO)cc1F)Nc1cc(C(F)(F)F)ccc1F [Example 8.1, 1-{2-Fluoro-4-[1-(2-hydroxy-ethyl)-1H-pyrazolo[3,4-c]pyridin-4-yl]-phenyl}-3-(2-fluoro-5-trifluoromethyl-phenyl)-urea]	>50	< 501
CN(C)CCN(C)c1ccc(C(F)(F)F)cc1NC(=O)Nc1ccc(-c2cncc3c2cnn3C)cc1 [Example 13.13, 1-{2-[(2-Dimethylamino-ethyl)-methyl-amino]-5-trifluoromethyl-phenyl}-3-[4-(1-methyl-1H-pyrazolo[3,4-c]pyridin-4-yl)-phenyl]-urea]	>50	< 501
O=C(Nc1ccc(-c2cncc3c2cnn3CCO)cc1)Nc1cc(C(F)(F)F)ccc1F [Example 8.2, 1-(2-Fluoro-5-trifluoromethyl-phenyl)-3-{4-[1-(2-hydroxy-ethyl)-1H-pyrazolo[3,4-c]pyridin-4-yl]-phenyl}-urea]	>50	< 501
Cn1ncc2c(-c3ccc(NC(=O)Nc4cc(C(F)(F)F)ccn4)c(F)c3)cncc21 [Example 14.5, 1-[2-Fluoro-4-(1-methyl-1H-pyrazolo[3,4-c]pyridin-4-yl)-phenyl]-3-(4-trifluoromethyl-pyridin-2-yl)-urea]	>50	< 501
CCn1ncc2c(-c3ccc(NC(=O)Nc4cc(C(F)(F)F)ccc4F)c(F)c3)cncc21 [Example 11.2, 1-[4-(1-Ethyl-1H-pyrazolo[3,4-c]pyridin-4-yl)-2-fluoro-phenyl]-3-(2-fluoro-5-trifluoromethyl-phenyl)-urea]	>50	< 501
